Measurements: patent US5614533A, “Substituted pipecolinic acid derivatives as HIV protease inhibitors” (Bio-Mega/Boehringer Ingelheim Research, Inc., priority 1994, dated 1997)
Where two headings read alike, the source gives them in different places.

Tests used:
[1] = system: HIV (H9/HTLV-IIIB) in C8166 cells; assay: plaque assay: inhibition of syncytia formation in HIV-infected C8166 cells; assay type: cell-based; details: Human immunodeficiency virus 1, IIIB, 72 h, 50% inhibition of syncytia formation
From the text: Typical of such procedures are those described by S. Harada and N. Yamamoto, Jpn. J. Cancer Res. (Gann), 76, 432 (1985), and S. Harada et al., Science, 229, 563 (1985). An assay based on the latter procedures is described in the examples hereinafter.
The following protocol, used for screening antiviral effects of the compounds of formula 1, is adapted from a plaque assay utilizing HTLV-I transformed cells, previously reported by Harada et al., supra. HTLV-I transformed cells are used because of the rapidity with which HIV will replicate in the cells.
1. The test compound is dissolved in dimethylsulfoxide to a concentration of 5 mg/mL. The resultant solution can be stored at 4° until use.
2. The resultant solution is diluted in RPMI 1640 (Gibco Laboratories, St. Lawrence, Mass., USA) to four times (4×) the final concentration which is to be tested. Once diluted in RPMI 1640, the solution is used in the cell culture assay within 4 h.
3. The 4× solution (50 μL) is added to triplicate wells of a 96 well flat bottomed microtiter plate. RPMI (50 μL) also is added to control wells.
4. C8166 cells (5×10^4) in 50 μL of HEPES-buffered RPMI 1640 (pH=7.2), 10% heat inactivated fetal calf serum (FCS), […] gentamicin (complete media) are added to all wells.
5. Fifty times TCID50 of H9/HTLV-IIIB stock (stored in liquid nitrogen as cell culture supernatant in 50% FCS) in 100 μL of complete media is added to all wells. Infectious titer of virus stocks are as previously determined by end point dilution on C8166 cells. Titer of stocks are stable for 6-12 months when stored at -193°.
6. Microtiter plates are then placed on level shelves of a 37°, 5% CO2 humidified incubator for 72 h.
7. Plates are then removed and centers of syncytia are counted in each well by low power phase contrast light microscopy. […] Control wells should have between 25 and 75 centers of syncytia per well.
8. Percent inhibition of syncytia formation is calculated by the formula: [formula]
The concentration of the test compound which causes a 50% inhibition of syncytia formation, i.e. the EC50, is determined by using the technique of serial dilution of the working solution at step 3 and by using non-linear regression analysis (SAS® program) to graphically plot the observed percent inhibition of syncytia formation against the various concentrations of the test compound.

[2] = molecular target: T1, HIV protease (Human immunodeficiency virus type 1 group M subtype B, UniProt P04585); assay: Recombinant HIV Protease HPLC Assay; assay type: biochemical
T1 construct: HIV protease was expressed in E. coli; made in house; host or cells: E. coli (plasmid pBRT1 prt+)
From the text: The procedure is based on the capacity of the test compound to inhibit enzymatic cleavage by HIV protease of a decapeptide (the substrate) having an amino acid sequence which includes a known HIV protease cleavage site of a HIV polyprotein; see H. G. Krausslich et al., Proc. Natl. Acad. Sci. USA, 86, 807 (1989). Details of this assay together with the results obtained for exemplified compounds of formula 1 are described in the examples hereinafter.
Recombinant HIV Protease HPLC Assay:
Enzyme: HIV protease was expressed in E. coli {construct pBRT1 prt^+, see W. G. Farmerie et al., Science, 236, 305 (1987)}, according to the following protocol:
E. coli cells containing the pBRT1 prt^+ plasmid were used to inoculate a seed culture media composed of Luria-Bertani Broth containing 100 μg/mL of ampicillin. Flasks were incubated at 37° under agitation for 17 h. Production flasks containing sterile M9 broth, supplemented with 100 μg/mL of ampicillin, were inoculated at a level of 1% (v/v) using the seed culture described above. Total volume in each production flask was 500 mL in a 2 L Erlenmeyer flask. Flasks were incubated at 37° under agitation until a cell concentration corresponding to an optical density ([…]) of 0.6 was reached (no dilution). This time span was routinely 3-4 h. Flasks were then supplemented with 5 mM isopropylthiogalactoside (IPTG, Research Organics, Cleveland, Ohio, USA) and incubation was continued until the cell concentration reached an optical density of 0.2 at 16-fold dilution. Flasks were then supplemented with 1 mM phenylmethylsulfonyl fluoride (PMSF) and rapidly chilled to 4°. The bacterial cells were recovered by centrifugation at 4°. The wet pellet was stored at -70°.
All steps below were performed at 4° unless otherwise indicated. Thawed cells were mixed with buffer A {50 mM tris(hydroxymethyl)[…] HCl (Tris-HCl, pH 7.4); 0.6 mM ethylenediaminetetraacetic acid (EDTA); 0.375M NaCl, 0.2% Nonidet P-40® (BDH Chemicals Ltd., Poole, UK); 1 mM PMSF}, at a ratio of one part cells to nine parts buffer A. Diatomaceous earth (Celite 545®, John Manville, Lompoc, Calif. USA) was added at a ratio of two parts to one part of wet cell weight. The resulting slurry was homogenized at high speed (ca. 20,000 rpm) on a Waring® industrial blender for 8×15 sec. pulses. Cell debris/Celite® was collected by centrifugation and the resulting pellet was extracted with 4.5 parts of buffer A to one part wet solids using the homogenization procedure described above. Supernatants from both homogenization steps were combined and soluble protein was precipitated by the addition of solid (NH4)2 SO4 to yield a final concentration of 75% saturation. This mixture was agitated for 60 min and the precipitate was recovered by centrifugation. The resulting pellet was suspended in buffer B {50 mM Tris-HCl, pH 8; 30 mM NaCl; 1 mM DL-dithiothreitol (DTT); 1 mM EDTA; 1 mM PMSF; 10% glycerol}, and dialyzed for 18 h against the same buffer.
An aliquot of the dialyzed extract containing 150 mg of the protein was loaded onto a Sephadex A25® anion exchange column (Pharmacia, Uppsala, Sweden) with bed dimensions of 70 cm length and 2.5 cm diameter. The sample was eluted isocratically with buffer B at a linear flow rate of 10 cm/h. Fractions containing HIV protease activity (see below for assay description) were combined, and soluble protein was precipitated by the addition of saturated aqueous (NH4)2 SO4 to yield a total (NH4)2 SO4 concentration of 85% saturation. Precipitated protein was removed by centrifugation and the resulting pellet was dissolved in buffer C {50 mM 2-(4-morpholino)ethanesulfonic acid (MES), pH 5.5; 150 mM NaCl; 1 mM DTT; 1 mM EDTA; 10% glycerol}. This preparation was dialyzed for 18 h against buffer C, and then frozen at -70°. All crude extracts were purified by chromatography in aliquots containing 150 mg of protein in the same manner as described above. […]

Work on `CC(C)(C)NC(=O)[C@@H]1C[C@H](Sc2ccncc2)CCN1C[C@@H](O)[C@H](Cc1ccccc1)NC(=O)OCc1ccccc1` [Table IV, entry 29] yielded an EC50 ([1]; Table IV) of 140 nM and an IC50 ([2]; Table IV, 37°, 30 min, pH 5.5) of 8 nM.
Work on `CC(C)(C)NC(=O)[C@@H]1C[C@H](Sc2ncccn2)CCN1C[C@@H](O)[C@H](Cc1ccccc1)NC(=O)OCc1ccccc1` [Table IV, entry 30, N-tert-butyl-1-{3(S)-(benzyloxycarbonylamino)-2(R)-hydroxy-4-phenylbutyl}-4(R)-(2-pyrimidinylthio)piperidine-2(S)-carboxamide] yielded an EC50 ([1]; Table IV) of 822 nM and an IC50 ([2]; Table IV, 37°, 30 min, pH 5.5) of 19 nM.
`Cc1cc(C)nc(S[C@@H]2CCN(C[C@@H](O)[C@H](Cc3ccccc3)NC(=O)OCc3ccccc3)[C@H](C(=O)NC(C)(C)C)C2)n1` [Table IV, entry 31, N-tert-butyl-1-{3(S)-(benzyloxycarbonylamino)-2(R)-hydroxy-4-phenylbutyl}-4(R)-(4,6-dimethyl-2-pyrimidinylthio)-piperidine-2(S)-carboxamide] showed an EC50 ([1]; Table IV) of 290 nM and an IC50 [2] of 12 nM.
With `CC(C)[C@H](NC(=O)OCc1ccccc1)C(=O)N[C@@H](Cc1ccccc1)[C@H](O)CN1CC[C@@H](Sc2ncccn2)C[C@H]1C(=O)NC(C)(C)C` [Table IV, entry 35, N-tert-butyl-1-{3(S)-{{N-(benzyloxycarbonyl)valyl}amino}-2(R)-hydroxy-4-phenylbutyl}-4(R)-(2-pyrimidinylthio)piperidine-2(S)-carboxamide] the EC50 ([1]; Table IV) was 15 nM and the IC50 ([2]; Table IV, 37°, 30 min, pH 5.5) was 3.7 nM.
For `Cc1cc(C)nc(S[C@@H]2CCN(C[C@@H](O)[C@H](Cc3ccccc3)NC(=O)[C@@H](NC(=O)OCc3ccccc3)C(C)C)[C@H](C(=O)NC(C)(C)C)C2)n1` [Table IV, entry 36, N-tert-butyl-1-{3(S)-{{N-(benzyloxycarbonyl)valy}amino}-2(R)-hydroxy-4-phenylbutyl}-4(R)-(4,6-dimethyl-2-pyrimidinylthio)piperidine-2(S)-carboxamide], the EC50 ([1]; Table IV) was 9 nM and the IC50 ([2]; Table IV, 37°, 30 min, pH 5.5) was 3 nM.
For `CC(C)[C@H](NC(=O)OCc1ccccc1)C(=O)N[C@@H](Cc1ccccc1)[C@H](O)CN1CC[C@@H](SCc2ccccc2)C[C@H]1C(=O)NC(C)(C)C` [Table IV, entry 37, N-tert-butyl-1-{3(S)-{{N-(benzyloxycarbonyl)valyl}amino}-2(R)-hydroxy-4-phenylbutyl}-4(R)-(benzylthio)piperidine-2(S)-carboxamide], the EC50 ([1]; Table IV) was 7 nM and the IC50 ([2]; Table IV, 37°, 30 min, pH 5.5) was 2.3 nM.
`CC(C)[C@H](NC(=O)N(C)Cc1ccccn1)C(=O)N[C@@H](Cc1ccccc1)[C@H](O)CN1CC[C@@H](Sc2ccccc2)C[C@H]1C(=O)NC(C)(C)C` [Table IV, entry 38, N-tert-butyl-1-{2(R)-hydroxy-3(S)-{N-{{N-methyl-N-(2-pyridinylmethyl)amino}carbonyl}valyl}-4-phenylbutyl}-4(R)-(phenylthio)piperidine-2(S)-carboxamide] gave an EC50 ([1]; Table IV) of 14 nM and an IC50 ([2]; Table IV, 37°, 30 min, pH 5.5) of 4.3 nM.
`CC(C)[C@H](NC(=O)c1ccc2ccccc2n1)C(=O)N[C@@H](Cc1ccccc1)[C@H](O)CN1CC[C@@H](Sc2ncccn2)C[C@H]1C(=O)NC(C)(C)C` [Table V, entry 1, N-tert-butyl-1-{2(R)-hydroxy-4-phenyl-3(S)-{{N-(2-quinolylinylcarbonyl)valyl}amino}butyl}-4(R)-(2-pyrimidinylthio)piperidine-2-carboxamide] was tested, and the EC50 ([1]; Table V) was 7 nM and the IC50 ([2]; Table V, 37°, 30 min, pH 5.5) was 3.6 nM.
`CC(C)[C@H](NC(=O)c1ccc2ccccc2n1)C(=O)N[C@@H](Cc1ccccc1)[C@H](O)CN1CC[C@@H](SCc2ccncc2)C[C@H]1C(=O)NC(C)(C)C` [Table V, entry 2(S), N-tert-butyl-1-{2(R)-hydroxy-4-phenyl-3(S)-{{N-(2-quinolylinylcarbonyl)valyl}amino}butyl}-4(R)-{(4-pyridinylmethyl)thio}piperidine-2-carboxamide] showed an EC50 ([1]; Table V) of 4 nM and an IC50 ([2]; Table V, 37°, 30 min, pH 5.5) of 2.8 nM.
With `CC(C)[C@H](NC(=O)c1ccc2ccccc2n1)C(=O)N[C@@H](Cc1ccccc1)[C@H](O)CN1CC[C@@H](OCc2ccccn2)C[C@H]1C(=O)NC(C)(C)C` [Table V, entry 3, N-tert-butyl-1-{2(R)-hydroxy-4-phenyl-3(S)-{{N-(2-quinolylinylcarbonyl)valyl}amino}butyl}-4(R)-(2-pyridinylmethoxy)piperidine-2-carboxamide] the EC50 ([1]; Table V) was 24 nM and the IC50 ([2]; Table V, 37°, 30 min, pH 5.5) was 3.9 nM.
`Cc1cc(C)nc(S[C@@H]2CCN(C[C@@H](O)[C@H](Cc3ccccc3)NC(=O)[C@@H](NC(=O)c3ccc4ccccc4n3)C(C)C)[C@H](C(=O)NC(C)(C)C)C2)n1` [Table V, entry 4, N-tert-butyl-1-{2(R)-hydroxy-4-phenyl-3(S)-{{N-(2-quinolylinylcarbonyl)valyl}amino}butyl}-4(R)-{(4,6-dimethyl-2-pyrimidinyl)thio}piperidine-2-carboxamide] showed an EC50 ([1]; Table V) of 8 nM and an IC50 ([2]; Table V, 37°, 30 min, pH 5.5) of 2.7 nM.
For `CC(C)[C@H](NC(=O)c1ccc2ccccc2n1)C(=O)N[C@@H](Cc1ccccc1)[C@H](O)CN1CC[C@@H](Sc2ccncc2)C[C@H]1C(=O)NC(C)(C)C` [Table V, entry 5, N-tert-butyl-1-{2(S)(R)-hydroxy-4-phenyl-3(S)-{{N-(2-quinolylinylcarbonyl)valyl}amino}butyl}-4(R)-(4-pyridinylthio)piperidine-2-carboxamide], the EC50 ([1]; Table V) was 3 nM and the IC50 ([2]; Table V, 37°, 30 min, pH 5.5) was 1.5 nM.
Compound `CC(C)[C@H](NC(=O)c1ccc2ccccc2n1)C(=O)N[C@@H](Cc1ccccc1)[C@H](O)CN1CC[C@@H](Sc2ccccn2)C[C@H]1C(=O)NC(C)(C)C` [Table V, entry 6, N-tert-butyl-1-{2(S)(R)-hydroxy-4-phenyl-3(S)-{{N-(2-quinolylinylcarbonyl)valyl}amino}butyl}-4(R)-(2-pyridinylthio)piperidine-2-carboxamide] has an EC50 ([1]; Table V) of 4 nM and an IC50 ([2]; Table V, 37°, 30 min, pH 5.5) of 1.9 nM.
